The values below come from US20080171732A1, “New Pyridine Analogues IX 519” (AstraZeneca AB, priority 2007, published 2008).

The target in the test is T1, P2Y12 receptor (Homo sapiens, UniProt Q9H244).
T1 construct: expressed in transfected cells; host or cells: CHO cells (membranes)
Kind of test: Functional inhibition of 2-Me-S-ADP induced P2Y12 signalling (35S-GTPγS, cell membranes from P2Y12 transfected CHO-cells). It is filed as biochemical. The following applies: EC80 concentration of agonist 2-methyl-thio-adenosine diphosphate, 30° C., 45 min. Here is the method: Functional inhibition of-the P2Y12 receptor can be measured by in vitro assays using cell membranes from P2Y12 transfected CHO-cells, the methodology is indicated below.
(§1) Functional inhibition of 2-Me-S-ADP induced P2Y12 signalling: 5 μg of membranes were diluted in 200 μl of 200 mM NaCl, 1 mM MgCl2, 50 mM HEPES (pH 7.4), 0.01% BSA, 30μg/ml saponin and 10 μM GDP. To this was added an EC80 concentration of agonist (2-methyl-thio-adenosine diphosphate), the required concentration of test compound and 0.1 μCi ^35S-GTPγS. The reaction was allowed to proceed at 30° C. for 45 min. Samples were then transferred on to GF/B filters using a cell harvester and washed with wash buffer (50 mM Tris (pH 7.4), 5 mM MgCl2, 50 mM NaCl). Filters were then covered with scintilant and counted for the amount of ^35S-GTPγS retained by the filter. Maximum activity was that determined in the presence of the agonist and minimum activity in the absence of the agonist following subtraction of the value determined for non-specific activity. The effect of compounds at various concentrations was plotted according to the equation
y=A+((B−A)/(1+((C/x)̂D)))
and IC50 estimated where • A is the bottom plateau of the curve i.e. the final minimum y value • B is the top of the plateau of the curve i.e. the final maximum y value • C is the x value at the middle of the curve. This represents the log EC50 value when A+B=100 • D is the slope factor. • x is the original known x values. • Y is the original known y values.
as §1, with “30 μg/ml” for “30μg/ml”, “0. 1” for “0.1”

The IC50 is the concentration at which inhibition is half-maximal. A lower IC50 goes with inhibition by little substance.

T1 sequence (Q9H244 whole entry): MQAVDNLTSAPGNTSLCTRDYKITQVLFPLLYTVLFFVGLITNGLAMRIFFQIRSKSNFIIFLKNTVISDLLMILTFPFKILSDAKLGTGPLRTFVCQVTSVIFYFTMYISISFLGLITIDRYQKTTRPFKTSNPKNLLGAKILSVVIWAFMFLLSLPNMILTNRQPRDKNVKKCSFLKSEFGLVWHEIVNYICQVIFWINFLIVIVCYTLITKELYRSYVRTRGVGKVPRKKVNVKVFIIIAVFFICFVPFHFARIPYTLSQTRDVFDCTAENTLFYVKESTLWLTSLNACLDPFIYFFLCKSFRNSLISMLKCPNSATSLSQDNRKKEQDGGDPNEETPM

The compound `CCOC(=O)c1cc(C#N)c(N2CC(C(=O)NS(=O)(=O)Cc3cccc(F)c3F)C2)nc1OC` [Example 32, Ethyl5-cyano-6-(3-{[(2,3-difluorobenzyl)sulfonyl]carbamoyl}azetidin-1-yl)-2-methoxynicotinate] gave an IC50 of 0.083 µM. The compound `CCOCc1nc(N2CC(C(=O)NS(=O)(=O)Cc3ccccc3)C2)c(C#N)cc1C(=O)OCC` [Example 33, Ethyl6-{3-[(benzylsulfonyl)carbamoyl]azetidin-1-yl}-5-cyano-2-(ethoxymethyl)nicotinate] gave an IC50 of 0.069 µM. In the case of `CCOCc1nc(N2CCC(C(=O)NS(=O)(=O)Cc3ccccc3)CC2)c(C#N)cc1C(=O)OCC` [Example 34, Ethyl6-{4-[(benzylsulfonyl)carbamoyl]piperidin-1-yl}-5-cyano-2-(ethoxymethyl)nicotinate] it was 0.034 µM; in that of `CCOC(=O)c1cc(C#N)c(N2CCC(C(=O)NS(=O)(=O)Cc3ccccc3)CC2)nc1COCc1ccccc1` [Example 36, Ethyl2-[(benzyloxy)methyl]-6-{4-[(benzylsulfonyl)carbamoyl]piperidin-1-yl}-5-cyanonicotinate], 0.055 µM; in that of `CCOC(=O)c1cc(C#N)c(N2CC(C(=O)NS(=O)(=O)Cc3ccccc3)C2)nc1CO` [Example 37, Ethyl6-{3-[(benzylsulfonyl)carbamoyl]azetidin-1-yl}-5-cyano-2-(hydroxymethyl)nicotinate], 0.047 µM.

For `CCOC(=O)c1cc(C#N)c(N2CC(C(=O)NS(=O)(=O)Cc3ccccc3)C2)nc1OCC` [Example 38, Ethyl6-{3-[(benzylsulfonyl)carbamoyl]azetidin-1-yl}-5-cyano-2-ethoxynicotinate], the IC50 was found to be 0.047 µM.

Compound `CCOC(=O)c1cc(C#N)c(N2CC(C(=O)NS(=O)(=O)Cc3ccc(F)cc3)C2)nc1OCC` [Example 39, Ethyl5-cyano-2-ethoxy-6-(3-{[(4-fluorobenzyl)sulfonyl]carbamoyl}azetidin-1-yl)nicotinate] came in with an IC50 of 0.032 µM.

For the compound `CCOC(=O)c1cc(C#N)c(N2CC(C(=O)NS(=O)(=O)Cc3ccccc3F)C2)nc1OCC` [Example 40, Ethyl5-cyano-2-ethoxy-6-(3-{[(2-fluorobenzyl)sulfonyl]carbamoyl}azetidin-1-yl)nicotinate], the IC50 is 0.031 µM. On to `CCOC(=O)c1cc(C#N)c(N2CC(C(=O)NS(=O)(=O)Cc3ccc(F)cc3F)C2)nc1OCC` [Example 41, Ethyl5-cyano-6-(3-{[(2,4-difluorobenzyl)sulfonyl]carbamoyl}azetidin-1-yl)-2-ethoxynicotinate], for which the IC50 came to 0.087 µM. For `CCOC(=O)c1cc(C#N)c(N2CC(C(=O)NS(=O)(=O)Cc3ccccc3)C2)nc1COCc1ccc(OC)c(OC)c1` [Example 42, Ethyl6-{3-[(benzylsulfonyl)carbamoyl]azetidin-1-yl}-5-cyano-2-{[(3,4-dimethoxybenzyl)oxy]methyl}nicotinate], the IC50 turned out to be 0.135 µM. With `CCOC(=O)c1cc(Cl)c(N2CCC(C(=O)NS(=O)(=O)Cc3ccc(Cl)cc3)CC2)nc1SC` [Example 43, Ethyl5-chloro-6-(4-{[(4-chlorobenzyl)sulfonyl]carbamoyl}piperidin-1-yl)-2-(methylthio)nicotinate], the IC50 was determined as 0.132 µM. As for `CCOC(=O)c1cc(F)c(N2CCC(C(=O)NS(=O)(=O)Cc3ccccc3)CC2)nc1SC` [Example 44, Ethyl6-{4-[(benzylsulfonyl)carbamoyl]piperidin-1-yl}-5-fluoro-2-(methylthio)nicotinate], the IC50 came out at 0.042 µM.

As for `CCOC(=O)c1cc(C#N)c(N2CCC(C(=O)NS(=O)(=O)Cc3ccccc3)CC2)nc1CCOC` [Example 45, Ethyl6-{4-[(benzylsulfonyl)carbamoyl]piperidin-1-yl}-5-cyano-2-(2-methoxyethyl)nicotinate], the IC50 was 0.06 µM. In the case of `CCOC(=O)c1cc(F)c(N2CCC(C(=O)NS(=O)(=O)Cc3ccccc3)CC2)nc1Cl` [Example 46, Ethyl6-{4-[(benzylsulfonyl)carbamoyl]piperidin-1-yl}-2-chloro-5-fluoronicotinate] it was 0.048 µM; in that of `CCOC(=O)c1cc(C#N)c(N2CCC(C(=O)NS(=O)(=O)Cc3ccccc3)CC2)nc1Cn1cncn1` [Example 47, Ethyl6-{4-[(benzylsulfonyl)carbamoyl]piperidin-1-yl}-5-cyano-2-(1H-1,2,4-triazol-1-ylmethyl)nicotinate], 0.077 µM; in that of `CCOC(=O)c1cc(C#N)c(N2CCC(C(=O)NS(=O)(=O)Cc3ccccc3)CC2)nc1Cn1ccnn1` [Example 48], 0.032 µM. `CCOC(=O)c1cc(C#N)c(N2CCC(C(=O)NS(=O)(=O)Cc3ccccc3)CC2)nc1Cn1ccnc1` [Example 49, Ethyl6-{4-[(benzylsulfonyl)carbamoyl]piperidin-1-yl}-5-cyano-2-(1H-imidazol-1-ylmethyl)nicotinate] showed an IC50 of 0.073 µM. In turn, `CC(C)OC(=O)c1cc(C#N)c(N2CCC(C(=O)NS(=O)(=O)Cc3ccccc3)CC2)nc1C#N` [Example 50, Isopropyl6-{4-[(benzylsulfonyl)carbamoyl]piperidin-1-yl}-2,5-dicyanonicotinate] showed an IC50 of 0.016 µM. In the case of `CCCC(=O)c1cc(C#N)c(N2CCC(C(=O)NS(=O)(=O)Cc3ccc(F)cc3)CC2)nc1OC` [Example 51, 1-(5-Butyryl-3-cyano-6-methoxypyridin-2-yl)-N-[(4-fluorobenzyl)sulfonyl]piperidine-4-carboxamide], the IC50 was 0.05 µM.

Take `CCCC(=O)c1cc(C#N)c(N2CCC(C(=O)NS(=O)(=O)Cc3ccc(Cl)cc3)CC2)nc1OC` [Example 52, 1-(5-Butyryl-3-cyano-6-methoxypyridin-2-yl)-N-[(4-chlorobenzyl)sulfonyl]piperidine-4-carboxamide]: the IC50 was determined as 0.055 µM. `CCCC(=O)c1cc(C#N)c(N2CCC(C(=O)NS(=O)(=O)Cc3ccccc3)CC2)nc1OC` [Example 53, N-(Benzylsulfonyl)-1-(5-butyryl-3-cyano-6-methoxypyridin-2-yl)piperidine-4-carboxamide] returned an IC50 of 0.076 µM. In the case of `CCOC(=O)c1cc(Cl)c(N2CCC(C(=O)NS(=O)(=O)Cc3ccccc3)CC2)nc1SC` [Example 54, Ethyl6-{4-[(benzylsulfonyl)carbamoyl]piperidin-1-yl}-5-chloro-2-(methylthio)nicotinate] it was 0.039 µM; in that of `COc1nc(N2CCC(C(=O)NS(=O)(=O)Cc3ccc(Cl)cc3)CC2)c(C#N)cc1C(=O)OC(C)C` [Example 55, Isopropyl6-(4-{[(4-chlorobenzyl)sulfonyl]carbamoyl}piperidin-1-yl)-5-cyano-2-methoxynicotinate], 0.011 µM; in that of `COc1nc(N2CCC(C(=O)NS(=O)(=O)Cc3ccc(F)cc3)CC2)c(C#N)cc1C(=O)OC(C)C` [Example 56, Isopropyl5-cyano-6-(4-{[(4-fluorobenzyl)sulfonyl]carbamoyl}piperidin-1-yl)-2-methoxynicotinate], 0.025 µM.

Compound `CCOC(=O)c1cc(C#N)c(N2CC(C(=O)NS(=O)(=O)Cc3ccccc3)C2)nc1SC` [Example 57, Ethyl6-{3-[(benzylsulfonyl)carbamoyl]azetidin-1-yl}-5-cyano-2-(methylthio)nicotinate] gave an IC50 of 0.018 µM.

`CCOC(=O)c1cc(C#N)c(N2CCC(C(=O)NS(=O)(=O)Cc3ccccc3)CC2)nc1SC` [Example 58, Ethyl6-{4-[(benzylsulfonyl)carbamoyl]piperidin-1-yl}-5-cyano-2-(methylthio)nicotinate]: the IC50 is 0.0077 µM. Regarding `CCOC(=O)c1cc(Cl)c(N2CCC(C(=O)NS(=O)(=O)Cc3ccccc3)CC2)nc1Cl` [Example 59, Ethyl6-{4-[(benzylsulfonyl)carbamoyl]piperidin-1-yl}-2,5-dichloronicotinate], the half-inhibitory concentration (IC50) amounted to 0.033 µM.

Compound `COc1nc(N2CCC(C(=O)NS(=O)(=O)Cc3ccccc3)CC2)c(C#N)cc1C(=O)OC(C)C` [Example 60, Isopropyl6-{4-[(benzylsulfonyl)carbamoyl]piperidin-1-yl}-5-cyano-2-methoxynicotinate] showed an IC50 of 0.027 µM. “Ethyl5-cyano-6-(3-{[(2-fluorobenzyl)sulfonyl]carbamoyl}azetidin-1-yl)-2-methoxynicotinate [Example 21]” had an IC50 of 0.015 µM.
